“Also recorded” adds a separate entry of the source.
Target: SARS-CoV 3CL protease (Severe acute respiratory syndrome coronavirus, UniProt P0C6X7)
Test: biochemical
Format: biochemical

Structure (SMILES): Oc1c(Cl)cc(Cl)c(Cl)c1Cc1c(O)c(Cl)cc(Cl)c1Cl [hexachlorophene]
- IC50: 5 µM
- apparent Vmax in presence of inhibitor: 6.98 ± 0.16 µmol/min/mg
- dependence of inhibitory effect on preincubation time: dependent on preincubation time; also recorded: slowly binding inhibitor
- inhibition mechanism / binding mode: classic competitive inhibitor

Structure (SMILES): Cc1c(O)cccc1C(=O)N[C@@H](CSc1ccccc1)[C@H](O)CN1C[C@H]2CCCC[C@H]2C[C@H]1C(=O)NC(C)(C)C [nelfinavir]
- IC50: 46 µM
- potency relative to hexachlorophene (times less potent): about 10 times

Structure (SMILES): Oc1cc(Cl)ccc1Oc1ccc(Cl)cc1Cl [triclosan]
- potency relative to hexachlorophene (times less potent): about 10 times
